Test: Inhibition of gamma secretase assessed as reduction in Abeta42 production

Row | Compound | IC50 [nM]
1 | COc1cc(Nc2nc3c(s2)CCCC3c2ccccc2)ccc1-n1cnc(C)c1 (centres undefined) | 40
2 | CC(C)CCN(Cc1ccc(C(F)(F)F)cc1)Cc1cc(-c2ccc(C(F)(F)F)cc2)cc(C(CC(C)C)C(=O)O)c1 (centres undefined) | 220
3 | COc1cc(/C=C/c2nc3n(n2)CCC[C@@H]3c2cccc(F)c2)ccc1-n1cnc(C)c1 | 28
4 | CC(C)CCN(Cc1cc(-c2ccc(C(F)(F)F)cc2)cc(C(CC(C)C)C(=O)O)c1)Cc1ccc(F)c(F)c1 (centres undefined) | 65
5 | COc1cc(/C=C/c2nc(-c3ccccc3)c[nH]2)ccc1-n1cnc(C)c1 | 76
6 | COc1cc(/C=C2\CC[C@H]3CCC[C@@H](c4cc(F)c(F)c(F)c4)N3C2=O)ccc1-n1cnc(C)c1 | 33
7 | CC(C)CC(C(=O)O)c1cc(Cl)c(OCC2CC2)c(-c2ccc3nonc3c2)c1 (centres undefined) | 274
8 | COc1cc(/C=C2\OC(C)(C)CN([C@@H](CO)c3ccc(F)cc3)C2=O)ccc1-n1cnc(C)c1 | 16
9 | COc1cc(/C=C/c2nc3n(n2)CCC[C@@H]3c2ccc(C(F)(F)F)cc2)ccc1-n1cnc(C)c1 | 31
10 | CC(C)CC(C(=O)O)c1cc(-c2ccc(C(F)(F)F)cc2)cc(N2CCC(C(F)(F)F)CC2)c1 (centres undefined) | 440
11 | COc1cc(Nc2nc3c(c(Cc4ccccc4)n2)CN(CCO)CC3)ccc1-n1cnc(C)c1 | 25
12 | COc1cc(NC(=O)Nc2cc(Cl)ccc2C)ccc1-c1ccnc(C)c1 | 670
13 | COc1cc(-c2cn(C3CCc4c(F)cccc4N(CC(F)(F)F)C3=O)nn2)ccc1Nc1cccnc1 (centres undefined) | 226
14 | COc1cc(Nc2ccnn(Cc3ccc(F)cc3)c2=O)ccc1-n1cnc(C)c1 | 345
15 | COc1cc(-c2cn([C@@H]3CCc4c(C)cc(C)cc4N(CC(F)(F)F)C3=O)nn2)ccc1-n1cnc(C)c1 | 21
16 | CC(C(=O)O)c1ccc2c(c1)[nH]c1ccc(Cl)cc12 (centres undefined) [CARPROFEN] | 76000
17 | COc1cc(NC(=O)C(C)c2ccc3c(c2)[nH]c2ccc(Cl)cc23)ccc1-c1ccnc(C)c1 (centres undefined) | 108
18 | COc1cc(Nc2ncc3c(n2)C(c2ccccc2)CCC3)ccc1-c1cnn(C)c1 (centres undefined) | 240
19 | COc1cc(Nc2nc(C)c(Cc3cccc(Cl)c3)s2)ccc1-n1cnc(C)c1 | 210
20 | COc1cc(C2=NOC3(CCCN(C(C)c4ccc(F)cc4)C3=O)C2)ccc1-n1cnc(C)c1 (centres undefined) | > 200
21 | CC(C)c1cc(C(C)C)c(S(=O)(=O)n2c3ccccc3c3ccc(OCC(=O)O)cc32)c(C(C)C)c1 | 7500
22 | CC(C)CC(C(=O)O)c1cc(Cc2cc(F)cc(F)c2)cc(-c2ccc(C(F)(F)F)cc2)c1 (centres undefined) | 740
23 | N#Cc1cc(Nc2nc3n(n2)CCCC3c2ccc(F)cc2)ccc1-n1cnc(Cl)c1 (centres undefined) | 110

Row | Compound | IC50 [nM]
24 | Cc1cn(-c2ccc(Nc3ncn(Cc4cccc(Cl)c4)n3)cc2C#N)cn1 | 220
25 | COc1nc(-c2nc3n(n2)CCC[C@@H]3c2cc(N(CC3CC3)CC(F)(F)F)ccc2Cl)ccc1-n1cnc(C)c1 | 6
26 | COc1cc(C)c(Cc2nc(-c3ccc(-n4cnc(C)c4)c(OC)n3)n[nH]2)cc1C(C)C | 11
27 | COc1nc(/C=C/c2nc3n(n2)CCC[C@@H]3c2ccc(F)cc2)ccc1-n1cnc(C)c1 | 37
28 | COc1cc(/C=C/C(=O)NCc2cccc(-c3ccccc3)c2)ccc1-n1cnc(C)c1 | 70
29 | COc1cc(/C=C/c2nc3n(n2)CCC[C@@H]3c2cc(F)c(F)c(F)c2)ccc1-n1cnc(C)c1 | 14
30 | COc1ccccc1NC(=O)Nc1ccc(-c2ccnc(C)c2)c(OC)c1 | 3300
31 | COc1cc(/C=C/C(=O)NC2CCc3ccccc3C2)ccc1-n1cnc(C)c1 (centres undefined) | 60
32 | COc1nc(/C=C/c2nc3n(n2)CCC[C@@H]3c2cc(F)c(F)c(F)c2)ccc1-n1cnc(C)c1 | 22
33 | COCc1cc(F)ccc1[C@H]1CCCn2nc(/C=C/c3ccc(-n4cnc(C)c4)c(OC)c3)nc21 | 12
34 | COc1cc(-c2cn(CC(=O)N(CC(F)(F)F)c3ccc(F)c(Cl)c3)nn2)ccc1-n1cnc(C)c1 | 84
35 | Cc1cn(-c2ccc(Nc3ncc4c(n3)C(c3ccccc3)CCC4)cc2F)cn1 (centres undefined) | 130
36 | COc1cc(Nc2nc(OC(C)C)nc(N(C)c3ccc(Cl)cc3)n2)ccc1-n1cnc(C)c1 | 120
37 | COc1cc(Nc2nc(Cc3ccc(Cl)cc3)c(CO)s2)ccc1-n1cnc(C)c1 | 340
38 | COc1cc(C(=O)c2c(OC)cnn(C(C)c3ccccc3)c2=O)ccc1-n1cnc(C)c1 (centres undefined) | 2500
39 | COc1cc(Nc2c(OC)cnn(C(C)c3ccccc3)c2=O)ccc1-n1cnc(C)c1 (centres undefined) | 3100
40 | CC(C)CCN1CC(c2cc(-c3ccc(C(F)(F)F)cc3)cc(C(CC(C)C)C(=O)O)c2)CCC1C(F)(F)F (centres undefined) | 370
41 | CCC[C@H](C(=O)O)c1cc(OCc2ccccc2)cc(-c2ccc(C(F)(F)F)cc2)c1 | 2500
42 | CC(C)CC(C(=O)O)c1cc(C#N)c(OCC2CC2)c(-c2ccc(C(F)(F)F)cc2)c1 (centres undefined) | 275
43 | COc1cc(C2CN(C(C)=O)CC3(CCCN(C(C)c4ccc(F)cc4)C3=O)C2)ccc1-n1cnc(C)c1 (centres undefined) | > 200
44 | COc1cc(Nc2cccc3c2nc(-c2ccc(F)cc2)n3C(C)C)ccc1-c1ccnc(C)c1 | 39
45 | COc1cc(C)c(Nc2nc(-c3ccc(-n4cnc(C)c4)c(OC)n3)n[nH]2)cc1C(C)C | 8
46 | CC(C)CC(C(=O)O)c1cc(-c2ccc(C(F)(F)F)cc2)cc(-c2cc(C(F)(F)F)cc(C(F)(F)F)c2)c1 (racemic) | 80

Row | Compound | IC50 [nM]
47 | CC(C)CC(C(=O)O)c1cc(-c2ccc(C(F)(F)F)cc2)cc(N(C)c2cc(F)cc(F)c2)c1 (centres undefined) | 450
48 | COc1cc(Nc2nc3c(c(COC4CCCC4)n2)COCC3)ccc1-n1cnc(C)c1 | 22
49 | CC(C)CC(C(=O)O)c1cc(/C=C/c2ccc(-c3ccccc3)cc2)cc(-c2ccc(Cl)c(C(F)(F)F)c2)c1 (centres undefined) | 150
50 | COc1cc(Nc2nc3n(n2)CCCC[C@H]3c2ccc(OCC(F)(F)F)cc2)ccc1-n1cnc(Cl)c1 | 5
51 | CC(C)CC(C(=O)O)c1cc(Cl)c(OCC2CC2)c(-c2ccc(C(F)(F)F)cc2)c1 (centres undefined) | 69
52 | COc1nc(/C=C/c2nc3n(n2)CCC[C@H]3c2ccccc2C(F)(F)F)ccc1-n1cnc(C)c1 [E-2212] | 17
53 | COCCN(Cc1cccc2ccccc12)C(=O)/C=C/c1ccc(-n2cnc(C)c2)c(OC)c1 | 60
54 | COc1cc(NC(=O)C(C)c2cccc(F)n2)ccc1-c1ccnc(C)c1 (centres undefined) | 557
55 | COc1cc(NC(=O)C(C)N2CCc3ccc(Br)cc3C2)ccc1-c1ccnc(C)c1 (centres undefined) | 181
56 | CC(C(=O)O)c1ccc(-c2ccccc2)c(F)c1 (racemic) [FLURBIPROFEN] | 300000
57 | COc1cc(Nc2ncn(Cc3cccc(Cl)c3)n2)ccc1-n1cnc(C)c1 | 130
58 | COc1cc(/C=C2\CCCN(Cc3cccc(F)c3)C2=O)ccc1-n1cnc(C)c1 | 200
59 | COc1cc(/C=C/c2nnc(C(C)c3ccc(F)cc3)[nH]2)ccc1-n1cnc(C)c1 (centres undefined) | 33
60 | COc1cc(/C=C2\OC(C)(C)CN([C@@H](C)c3ccc(F)cc3)C2=O)ccc1-n1cnc(C)c1 | 76
61 | COc1cc(C2CC23CCCN(C(C)c2ccc(F)cc2)C3=O)ccc1-n1cnc(C)c1 (centres undefined) | > 200
62 | CC(C)CC(C(=O)O)c1cc(-c2ccc(C(F)(F)F)cc2)cc(C2CCCC(C(F)(F)F)N2C)c1 (centres undefined) | 420
63 | COc1cc(Nc2nc3n(n2)CC[C@@](C)(O)C[C@@H]3c2ccc(F)cc2)ccc1-n1cnc(Cl)c1 | 2
64 | COc1cc(Nc2ncc3c(n2)C(c2ccccc2)CCC3)ccc1-n1cnc(C)c1 (centres undefined) | 840
65 | CC(C)CC(C(=O)O)c1cc(Oc2cc(F)cc(F)c2)cc(-c2ccc(C(F)(F)F)cc2)c1 (centres undefined) | 770
66 | CSc1ccc(/C=C2/C(C)=C(CC(=O)O)c3cc(F)ccc32)cc1 [SULINDAC SULFIDE] | 34000
67 | CC(C)CC(C(=O)O)c1cc(-c2ccc(C(F)(F)F)cc2)cc(C2CCCC(C(F)(F)F)N2Cc2ccc(C(F)(F)F)cc2)c1 (centres undefined) | 310
68 | COc1ccc2c(c1)c(CC(=O)O)c(C)n2C(=O)c1ccc(Cl)cc1 [INDOMETHACIN] | 25000
69 | COc1nc(-c2nc3n(n2)CCC[C@@H]3c2cc(N(CC3CC3)CC3CC3)ccc2Cl)ccc1-n1cnc(C)c1 | 4

Row | Compound | IC50 [nM]
70 | CC(C)CC(C(=O)O)c1cc(-c2ccc(C(F)(F)F)cc2)cc(C2CCC(C(F)(F)F)N(c3cc(F)cc(C(F)(F)F)c3)C2)c1 (centres undefined) | 310
71 | CCCCCCCCCCn1c2ccc(Cl)cc2c2ccc(C(C)C(=O)O)cc21 (centres undefined) | 2900
72 | COc1cc(/C=C2\OC(C)(C)CN([C@H](c3cc(F)c(F)c(F)c3)[C@@H](C)O)C2=O)ccc1-n1cnc(C)c1 | 5
73 | CC(C)CCN1C(c2cc(-c3ccc(C(F)(F)F)cc3)cc(C(CC(C)C)C(=O)O)c2)CCCC1C(F)(F)F (centres undefined) | 110
74 | CCCC1CCCCN1c1cc(-c2ccc(C(F)(F)F)cc2)cc(C(CC(C)C)C(=O)O)c1 (centres undefined) | 430
75 | COc1cc(Nc2nc3n(n2)CCCC[C@@H]3c2ccc(OCC(F)(F)F)cc2)ccc1-n1cnc(Cl)c1 | 10
76 | COc1cc(-c2cn(C(F)(F)c3ccc(C(F)(F)F)cc3)nn2)ccc1-n1cnc(C)c1 | 2240
77 | COc1cc(Nc2cccc3c2nc(-c2ccc(F)cc2)n3C)ccc1-n1cnc(C)c1 | 21
78 | COc1cc(Nc2nc(C)cc(Nc3ccc(Cl)cc3)n2)ccc1-n1cnc(C)c1 | 70
79 | CC(C)CC(C(=O)O)c1cc(CCc2ccc(-c3ccccc3)cc2)cc(-c2ccc(Cl)c(C(F)(F)F)c2)c1 (centres undefined) | 210
80 | COc1cc(-c2cn(C3CCc4c(F)cccc4N(CC(F)(F)F)C3=O)nn2)ccc1Oc1cccnc1 (centres undefined) | 537
81 | COc1cc(-c2cn(C3CCc4c(F)cccc4N(CC(F)(F)F)C3=O)nn2)ccc1C#Cc1ccnc(C)c1 (centres undefined) | 83
82 | COc1cc(/C=C/c2nc3n(n2)CCC[C@@H]3c2ccccc2)ccc1-n1cnc(C)c1 | 11
83 | COc1cc(-c2cn(C3CCc4ccccc4N(CC(F)(F)F)C3=O)nn2)ccc1-c1ccncc1 (centres undefined) | 80
84 | CC(C)CC(C(=O)O)c1cc(CCc2cc(F)cc(F)c2)cc(-c2ccc(C(F)(F)F)cc2)c1 (centres undefined) | 410
85 | COc1cc(NC(=O)NC(C)Cc2ccc(F)cc2)ccc1-c1ccnc(C)c1 (centres undefined) | 131
86 | Cc1cn(-c2ccc(/C=C3\OC(C)(C)CN([C@H](c4cc(F)c(F)c(F)c4)[C@@H](C)O)C3=O)cc2F)cn1 | 41
87 | COc1cc(C(O)c2c(OC)cnn([C@@H](C)c3ccc(F)cc3)c2=O)ccc1-n1cnc(C)c1 (some centres undefined) | 7100
88 | COc1cc(/C=C2\CCCN([C@H](c3cc(F)c(F)c(F)c3)[C@@H](C)O)C2=O)ccc1-n1cnc(C)n1 | 60
89 | CC(C)CCN(Cc1cc(-c2ccc(C(F)(F)F)cc2)cc(C(CC(C)C)C(=O)O)c1)c1ccc(C(F)(F)F)cc1 (centres undefined) | 250
